The text below walks through data of patent publication US20250101038A1, “COMPOUNDS” (priority 2021, published 2025).

The target of one assay is T1, 5-HT2B receptor (Homo sapiens, UniProt P41595).
T1 construct: host or cells: CHO-K1
In words: cell-based.

A further assay addresses T2, 5-HT2C receptor (Homo sapiens, UniProt P28335).
T2 construct: host or cells: HEK293
T2 sequence (P28335 33-458): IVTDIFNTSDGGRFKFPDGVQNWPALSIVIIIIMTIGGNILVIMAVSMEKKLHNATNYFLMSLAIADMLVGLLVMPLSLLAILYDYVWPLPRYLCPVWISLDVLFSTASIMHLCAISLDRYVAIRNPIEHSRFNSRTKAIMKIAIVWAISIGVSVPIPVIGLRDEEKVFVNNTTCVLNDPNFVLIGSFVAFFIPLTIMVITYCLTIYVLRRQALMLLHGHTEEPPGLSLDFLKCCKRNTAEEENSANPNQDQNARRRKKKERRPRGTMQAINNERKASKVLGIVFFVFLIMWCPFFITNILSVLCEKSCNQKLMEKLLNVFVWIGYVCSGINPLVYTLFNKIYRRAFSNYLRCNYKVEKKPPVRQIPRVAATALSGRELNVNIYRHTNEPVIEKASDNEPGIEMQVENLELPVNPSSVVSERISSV
In words: cell-based.

The target in the next assay is T3, 5-HT2A receptor (Homo sapiens, UniProt P28223).
T3 construct: host or cells: HEK293
T3 sequence (P28223 whole entry): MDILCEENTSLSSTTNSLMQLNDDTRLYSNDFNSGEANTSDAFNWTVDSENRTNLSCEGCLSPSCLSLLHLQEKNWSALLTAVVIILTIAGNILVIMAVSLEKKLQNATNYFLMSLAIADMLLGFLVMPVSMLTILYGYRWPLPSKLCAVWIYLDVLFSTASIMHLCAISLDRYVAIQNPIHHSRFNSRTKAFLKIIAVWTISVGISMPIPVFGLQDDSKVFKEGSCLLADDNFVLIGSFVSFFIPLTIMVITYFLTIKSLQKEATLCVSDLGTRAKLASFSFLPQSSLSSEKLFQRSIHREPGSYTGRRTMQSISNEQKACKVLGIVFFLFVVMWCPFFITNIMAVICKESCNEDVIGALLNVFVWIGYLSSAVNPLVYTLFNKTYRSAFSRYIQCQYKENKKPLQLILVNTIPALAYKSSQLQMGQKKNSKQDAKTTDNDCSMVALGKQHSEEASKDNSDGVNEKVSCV
In words: FLIPR Ca2+ flux functional assay, 5-HT2A. The assay is classed as cell-based. (Calcium flux is commonly read through the fluorescence of an indicator in the cells.)

The mark [1] stands for this setting: agonist activity, Ca2+ flux, CHO-K1 cells.
The mark [2] stands for this setting: agonist activity, Ca2+ flux, CHO-K1 cells, read-out: 5-HT2B EC50.
[3] abbreviates: agonist activity, Ca2+ flux, HEK293 cells.
Setting [4] is: agonist activity, Ca2+ flux, HEK293 cells, read-out: 5-HT2C EC50.
Setting [5] is: agonist activity, Ca2+ flux, HEK293 cells, read-out: 5-HT2A EC50.

Like-named read-outs stand apart in the source and are kept apart here.

T1 sequence (P41595 whole entry): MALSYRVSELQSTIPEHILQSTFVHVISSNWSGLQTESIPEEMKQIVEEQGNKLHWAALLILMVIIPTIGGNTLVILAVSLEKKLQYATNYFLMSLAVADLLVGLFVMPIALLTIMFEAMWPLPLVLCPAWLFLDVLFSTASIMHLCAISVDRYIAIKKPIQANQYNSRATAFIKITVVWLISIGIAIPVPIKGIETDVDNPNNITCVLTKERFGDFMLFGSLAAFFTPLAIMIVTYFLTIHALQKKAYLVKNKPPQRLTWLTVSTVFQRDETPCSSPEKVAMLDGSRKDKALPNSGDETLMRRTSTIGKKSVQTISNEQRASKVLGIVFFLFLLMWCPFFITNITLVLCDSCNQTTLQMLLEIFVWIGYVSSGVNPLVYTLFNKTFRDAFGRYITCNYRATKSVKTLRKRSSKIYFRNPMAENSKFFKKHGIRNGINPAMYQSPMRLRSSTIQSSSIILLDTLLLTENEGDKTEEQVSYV

Usually Emax stands for the size of the effect at its maximum, as opposed to the concentration needed. The EC50 is the midpoint of the concentration-response curve. Take `COc1cc(F)c2[nH]cc(CCN(C(C)C)C(C)C)c2c1` [Example P-118, N-(2-(7-fluoro-5-methoxy-1H-indol-3-yl)ethyl)-N-isopropylpropan-2-amine]: the Emax on 5-HT2B receptor (setting [1]) came to 95.2%; at 5-HT2C receptor (setting [3]), 97.1%; at 5-HT2A receptor (setting [3]), 82.2%. The EC50 on 5-HT2B receptor (setting [2]) is 66.3 nM; at 5-HT2C receptor (setting [4]), 695 nM; on 5-HT2A receptor (setting [5]), 17.4 nM.

Take `CN(C)CCc1c[nH]c2ccc3oc(=O)[nH]c3c12` [Example P-125, 8-(2-(dimethylamino)ethyl)-1,6-dihydro-2H-oxazolo[4,5-e]indol-2-one]: the figures for the half-maximal effective concentration (EC50) at 5-HT2B receptor, on 5-HT2C receptor and on 5-HT2A receptor were 14.3 nM, 538 nM and 48.5 nM, respectively. Moreover, the Emax on 5-HT2B receptor (setting [1]) came to 42.5%; on 5-HT2C receptor (setting [3]), 56.7%; on 5-HT2A receptor (setting [3]) it was 75.5%.

With `CCN(C)CCc1c[nH]c2ccc3ocnc3c12` [Example P-127, N-ethyl-N-methyl-2-(6H-oxazolo[4,5-e]indol-8-yl)ethan-1-amine], the concentration giving a half-maximal response (EC50) is above 10000 nM at 5-HT2B receptor, 30.7 nM at 5-HT2C receptor and 12 nM on 5-HT2A receptor. For the same compound, the maximal response (Emax) amounted to 10.5% at 5-HT2B receptor (setting [1]), 70.5% on 5-HT2C receptor (setting [3]) and 54% on 5-HT2A receptor (setting [3]).

Regarding `CC(C)N(C)CCc1c[nH]c2ccc3ocnc3c12` [Example P-128, N-(2-(6H-oxazolo[4,5-e]indol-8-yl)ethyl)-N-methylpropan-2-amine], the Emax at 5-HT2B receptor (setting [1]) was 16.8%; at 5-HT2C receptor (setting [3]) it was 58%; at 5-HT2A receptor (setting [3]) it was 83.8%. The figures for the EC50 at 5-HT2B receptor (setting [2]), on 5-HT2C receptor (setting [4]) and at 5-HT2A receptor (setting [5]) were above 10000 nM, 67.8 nM and 14.3 nM, respectively.

Regarding `CCN(CC)CCc1c[nH]c2ccc3ocnc3c12` [Example P-129, N,N-diethyl-2-(6H-oxazolo[4,5-e]indol-8-yl)ethan-1-amine], the EC50 on 5-HT2B receptor amounted to 14.9 nM; at 5-HT2C receptor it was 72.7 nM; on 5-HT2A receptor, 14.4 nM. The Emax at 5-HT2B receptor (setting [1]) came out at 41.1%; on 5-HT2C receptor (setting [3]), 93.1%; at 5-HT2A receptor (setting [3]) it was 64%.

`CC(C)N(CCc1c[nH]c2ccc3ocnc3c12)C(C)C` [Example P-130, N-(2-(6H-oxazolo[4,5-e]indol-8-yl)ethyl)-N-isopropylpropan-2-amine]: the maximal response (Emax) on 5-HT2B receptor (setting [1]) came to 114%; on 5-HT2C receptor (setting [3]), 104%; at 5-HT2A receptor (setting [3]), 87.5%. Moreover, the EC50 at 5-HT2B receptor (setting [2]) stood at 7.54 nM; on 5-HT2C receptor (setting [4]), 203 nM; at 5-HT2A receptor (setting [5]) it was 18.1 nM.

Regarding `Cc1nc2c(ccc3[nH]cc(CCN(C)C)c32)o1` [Example P-131, N,N-dimethyl-2-(2-methyl-6H-oxazolo[4,5-e]indol-8-yl)ethan-1-amine], the concentration giving a half-maximal response (EC50) on 5-HT2B receptor was above 10000 nM; at 5-HT2C receptor, 15.8 nM; at 5-HT2A receptor, 10.6 nM. The maximal response (Emax) at 5-HT2B receptor (setting [1]) is 3.93%; on 5-HT2C receptor (setting [3]), 90.1%; on 5-HT2A receptor (setting [3]) it was 97.2%.

Take `CCN(C)CCc1c[nH]c2ccc3oc(C)nc3c12` [Example P-132, N-ethyl-N-methyl-2-(2-methyl-6H-oxazolo[4,5-e]indol-8-yl)ethan-1-amine]: the EC50 on 5-HT2B receptor was above 10000 nM; on 5-HT2C receptor it was 177 nM; at 5-HT2A receptor, 20.6 nM. Besides, the figures for the maximal response (Emax) at 5-HT2B receptor (setting [1]), on 5-HT2C receptor (setting [3]) and at 5-HT2A receptor (setting [3]) were 11.4%, 85.7% and 69.1%, respectively.

For `Cc1nc2c(ccc3[nH]cc(CCN(C)C(C)C)c32)o1` [Example P-133, N-methyl-N-(2-(2-methyl-6H-oxazolo[4,5-e]indol-8-yl)ethyl)propan-2-amine], the figures for the maximal effect (Emax) at 5-HT2B receptor (setting [1]), on 5-HT2C receptor (setting [3]) and on 5-HT2A receptor (setting [3]) were 22.4%, 72.6% and 78.4%, respectively. Besides, the 50% effective concentration (EC50) on 5-HT2B receptor (setting [2]) was 68.6 nM; on 5-HT2C receptor (setting [4]), 894 nM; at 5-HT2A receptor (setting [5]) it was 27.9 nM.

For the compound `CCN(CC)CCc1c[nH]c2ccc3oc(C)nc3c12` [Example P-134, N,N-diethyl-2-(2-methyl-6H-oxazolo[4,5-e]indol-8-yl)ethan-1-amine], the concentration for a half-maximal effect (EC50) is 59.9 nM on 5-HT2B receptor, 429 nM on 5-HT2C receptor and 20.3 nM on 5-HT2A receptor. The values for the Emax at 5-HT2B receptor (setting [1]), on 5-HT2C receptor (setting [3]) and at 5-HT2A receptor (setting [3]) were 56.4%, 91.3% and 77.5%, respectively.

Regarding `Cc1nc2c(ccc3[nH]cc(CCN(C(C)C)C(C)C)c32)o1` [Example P-135, N-isopropyl-N-(2-(2-methyl-6H-oxazolo[4,5-e]indol-8-yl)ethyl)propan-2-amine], the values for the Emax on 5-HT2B receptor (setting [1]), at 5-HT2C receptor (setting [3]) and on 5-HT2A receptor (setting [3]) were 91.3%, 99.2% and 78.3%, respectively. Also, the figures for the half-maximal effective concentration (EC50) at 5-HT2B receptor (setting [2]), on 5-HT2C receptor (setting [4]) and on 5-HT2A receptor (setting [5]) were 31.4 nM, 2070 nM and 25.1 nM, respectively.

For `CN(C)CCc1c[nH]c2ccc(F)c(F)c12` [Example P-142, 2-(4,5-difluoro-1H-indol-3-yl)-N,N-dimethylethan-1-amine], the maximum response (Emax) was 2.92% on 5-HT2B receptor (setting [1]), 118% at 5-HT2C receptor (setting [3]) and 70% at 5-HT2A receptor (setting [3]).

Regarding `CCN(CC)CCc1c[nH]c2ccc(F)c(F)c12` [Example P-145, 2-(4,5-difluoro-1H-indol-3-yl)-N,N-diethylethan-1-amine], the values for the maximal response (Emax) on 5-HT2B receptor (setting [1]), at 5-HT2C receptor (setting [3]) and on 5-HT2A receptor (setting [3]) were 51.5%, 72.3% and 98.5%, respectively. In addition, the values for the half-maximal effective concentration (EC50) on 5-HT2B receptor (setting [2]), at 5-HT2C receptor (setting [4]) and at 5-HT2A receptor (setting [5]) were 23.3 nM, 102 nM and 10.6 nM, respectively.

Take `CC(C)N(CCc1c[nH]c2ccc(F)c(F)c12)C(C)C` [Example P-146, N-(2-(4,5-difluoro-1H-indol-3-yl)ethyl)-N-isopropylpropan-2-amine]: the maximal effect (Emax) is 155% on 5-HT2B receptor (setting [1]), 93.1% at 5-HT2C receptor (setting [3]) and 98.4% on 5-HT2A receptor (setting [3]). Also, the EC50 on 5-HT2B receptor (setting [2]) was found to be 21.4 nM; on 5-HT2C receptor (setting [4]) it was 25.4 nM; at 5-HT2A receptor (setting [5]) it was 10.1 nM.

`CN(C)CCc1c[nH]c2cc(F)cc(F)c12` [Example P-147, 2-(4,6-difluoro-1H-indol-3-yl)-N,N-dimethylethan-1-amine]: the maximal response (Emax) at 5-HT2B receptor (setting [1]) is 15.3%; on 5-HT2C receptor (setting [3]), 15.3%; on 5-HT2A receptor (setting [3]), 91.6%. Besides, the concentration giving a half-maximal response (EC50) on 5-HT2B receptor (setting [2]) was at least 10000 nM; on 5-HT2A receptor (setting [5]), 29.2 nM.

As to `CCN(C)CCc1c[nH]c2cc(F)cc(F)c12` [Example P-148, 2-(4,6-difluoro-1H-indol-3-yl)-N-ethyl-N-methylethan-1-amine], the maximum response (Emax) at 5-HT2B receptor (setting [1]) was determined as 35.6%; on 5-HT2C receptor (setting [3]), 35.6%; on 5-HT2A receptor (setting [3]), 78.9%. Besides, the EC50 at 5-HT2B receptor (setting [2]) is at least 10000 nM; at 5-HT2A receptor (setting [5]), 51.4 nM.

For `CC(C)N(C)CCc1c[nH]c2cc(F)cc(F)c12` [Example P-149, N-(2-(4,6-difluoro-1H-indol-3-yl)ethyl)-N-methylpropan-2-amine], the Emax was 30.1% at 5-HT2B receptor (setting [1]), 30.1% at 5-HT2C receptor (setting [3]) and 66.8% on 5-HT2A receptor (setting [3]). The results for the EC50 at 5-HT2B receptor (setting [2]) and at 5-HT2A receptor (setting [5]) were at least 10000 nM and 52.4 nM, respectively.

Consider `CN(C)CCc1c[nH]c2cc(F)c(F)cc12` [Example P-153, 2-(5,6-difluoro-1H-indol-3-yl)-N,N-dimethylethan-1-amine], for which the Emax is 10.6% on 5-HT2B receptor (setting [1]), 93.6% at 5-HT2C receptor (setting [3]) and 74.8% on 5-HT2A receptor (setting [3]). The EC50 on 5-HT2B receptor (setting [2]) was above 10000 nM; at 5-HT2C receptor (setting [4]), 5.35 nM; on 5-HT2A receptor (setting [5]), 29.5 nM.

Consider `CCN(C)CCc1c[nH]c2cc(F)c(F)cc12` [Example P-154, 2-(5,6-difluoro-1H-indol-3-yl)-N-ethyl-N-methylethan-1-amine], for which the values for the maximum response (Emax) at 5-HT2B receptor (setting [1]), at 5-HT2C receptor (setting [3]) and at 5-HT2A receptor (setting [3]) were 17.6%, 102% and 92.4%, respectively. The concentration for a half-maximal effect (EC50) at 5-HT2B receptor (setting [2]) is at least 10000 nM; on 5-HT2C receptor (setting [4]), 24.9 nM; on 5-HT2A receptor (setting [5]) it was 14.8 nM.
